Laboratory results published in patent publication US20070208087A1, “Compounds, compositions and methods for the treatment of inflammatory diseases” (priority 2001, published 2007).
Several values for one entry are separate records, joined by “and”; a condition that tells them apart may be missing. Identical values can stand only once.

How the values were obtained:
Assay type in all cases: cell-based
Microglial cells = assay: Dose response inhibition of NO release from microglia, 0.75-200 μM (Example 8); settings: for Avg % Inhibition / μM NO release Avg / % inhibition / OD values (printed under head μM NO release) / μM NO release: 48 hours; for % inhibition / OD values (printed under head μM NO release) / μM NO release: single replicates
Protocol: This experiment was designed to determine dose response inhibition of NO release from microglia by bis- and tris-dihydroxyaryl compounds when stimulated with LPS/IFNγ. […] This experiment is designed to determine a dose response for various bis- and tris-dihydroxyaryl compounds. Microglial cells were plated into 96 well plates at 1×10^5 cells/ml. […] The doses tested were: 0.75 μM, 1.56 μM, 3.125 μM, 6.25 μM, 12.5 μM, 25 μM, 50 μM, 100 μM and 200 μM. Nitric oxide release was measured after 48 hours using the Griess reaction.

[1] = system: EOC 13.31 microglia cells; assay: Inhibition of NO release from microglia following 24 hours pretreatment (Example 10); settings: for inhibition at 50 µM: Microglia
Outline: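 Confluent EOC 13.31 cells pretreated 24 hours with 50 μM compound (from 10 mM DMSO stock), then stimulated with 10 μg/ml LPS plus 10 ng/ml IFNγ without media change. After a further 48 hours, NO release was measured by Griess Reaction.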

[2] = system: EOC 13.31 microglial cells; assay: NO release inhibition screen in LPS/IFNγ stimulated microglia, Griess reaction at 48 hours (Example 7)
Protocol: In this experiment, additional bis- and tris-dihydroxyaryl compounds were screened for their ability to inhibit nitric oxide release from microglial cells. Microglial cells stimulated with LPS/IFNγ release nitric oxide. […] This is a continuation of screening experiments. EOC 13.31 microglial cells were plated into 96 well plates. At 24 hours and at confluency, cells were treated with 10 μg/ml LPS/10 ng/ml IFNγ+50 uM bis- and tris-dihydroxyaryl compounds.

microglia = assay: Ranking of NO release inhibition (Example 12); settings: ranking table
Text: The bis- and tris-dihydroxyaryl compounds were ranked in order of effectiveness for the inhibition of NO release as set out in Table 8.

[3] = system: EOC 13.31 microglia cells; assay: NO release inhibition in LPS/IFNγ stimulated microglia, concurrent treatment, Griess reaction at 24 hours (Example 6); settings: for OD Values: Griess; for OD Values / NO release: single replicates; for inhibition at 50 µM: Microglia
Protocol: The purpose of this experiment was to screen compounds 3, 4, 21, 26, 51, 52, 66, and 78 for their ability to inhibit Nitric oxide release from microglia. […] EOC 13.31 microglia cells were plated into 96 well plates for 24 hours. Confluent cells were treated with 50 μM of the bis- and tris-dihydroxyaryl compounds either with or without stimulation at 1 pg/ml LPS, and 1 ng/ml IFNγ. NO release was measured at 24 hours using the Griess reaction which is a spectrophotometric measure of NO release (reagents from Promega).

[4] = system: TNF-α release from microglia; assay: TNF-α release from LPS/IFNγ stimulated microglia, TNF-α ELISA (Example 11); settings: 50 uM compound, TNF-α release, 10 ug LPS and 10 ng IFNγ, 24 hours
Protocol: Also, bis- and tris-dihydroxyaryl compound's ability to inhibit NO release strongly supports their interference with the inflammatory cascade and utlimately inhibition of inflammation. Microglia cells were plated at 1×10^5 cells/ml into 96 well plates. At day three, they were treated with 50 μM bis- and tris-dihydroxyaryl compound for 1 hour and then exposed to 10 μg/ml LPS+10 ng/ml IFNγ for 24 hours. 10 μl of media was removed and stored at −80° until TNF-α ELISA assays were performed. Samples were diluted 1:50 before running the TNF-α ELISA (kit commercially available from Sigma).

[5] = 50 uM pretreatment 24 hours, then LPS/IFNγ 48 hours, single replicates
[6] = 50 uM + 10 μg/ml LPS/10 ng/ml IFNγ, 48 hours
[7] = 50 uM + 10 μg/ml LPS/10 ng/ml IFNγ, 48 hours, single replicates
[8] = Compound + LPS/IFNγ, 50 μM, 24 hours
[9] = Compound Only (without LPS/IFNγ), 50 μM, 24 hours

SMILES: Oc1ccc(Cc2ccc(O)c(O)c2)cc1O [Compound 3, 3,4,3′,4′-tetrahydroxydiphenylmethane]
- Avg % Inhibition (Microglial cells; dose 0.75 μM): −8.947%
- μM NO release Avg (Microglial cells; dose 0.75 μM): 21.563 µM
- % inhibition (Microglial cells; dose 0.75 μM): −3.42% and −6.58% and −16.84%
- OD values (printed under head μM NO release) (Microglial cells; dose 0.75 μM): 0.2 and 0.183 and 0.187
- μM NO release (Microglial cells; dose 0.75 μM): 23.125 µM and 20.469 µM and 21.094 µM
- μM NO release Avg (Microglial cells; dose 1.56 μM): 19.792 µM
- % inhibition (Microglial cells; dose 1.56 μM): 3.68% (2×) and −7.37%
- OD values (printed under head μM NO release) (Microglial cells; dose 1.56 μM): 0.188 and 0.174 (2×)
- μM NO release (Microglial cells; dose 1.56 μM): 21.250 μM and 19.063 μM (2×)
- Avg % Inhibition (Microglial cells; dose 3.125 μM): 0.789%
- μM NO release Avg (Microglial cells; dose 3.125 μM): 19.635 µM
- % inhibition (Microglial cells; dose 3.125 μM): 2.89% and 5.26% and −5.79%
- OD values (printed under head μM NO release) (Microglial cells; dose 3.125 μM): 0.186 and 0.175 and 0.172
- μM NO release (Microglial cells; dose 3.125 μM): 20.938 µM and 19.219 µM and 18.750 µM
- Avg % Inhibition (Microglial cells; dose 6.25 μM): 7.368%
- μM NO release Avg (Microglial cells; dose 6.25 μM): 18.333 µM
- % inhibition (Microglial cells; dose 6.25 μM): 10.79% and 10.00% and 1.32%
- OD values (printed under head μM NO release) (Microglial cells; dose 6.25 μM): 0.177 and 0.165 and 0.166
- μM NO release (Microglial cells; dose 6.25 μM): 19.531 µM and 17.656 µM and 17.813 µM
- Avg % Inhibition (Microglial cells; dose 12.5 μM): 6.579%
- μM NO release Avg (Microglial cells; dose 12.5 μM): 18.490 µM
- % inhibition (Microglial cells; dose 12.5 μM): 10.00% and 2.89% and 6.84%
- OD values (printed under head μM NO release) (Microglial cells; dose 12.5 μM): 0.17 and 0.166 and 0.175
- μM NO release (Microglial cells; dose 12.5 μM): 18.438 µM and 17.813 µM and 19.219 µM
- Avg % Inhibition (Microglial cells; dose 25 μM): 14.737%
- μM NO release Avg (Microglial cells; dose 25 μM): 16.875 µM
- % inhibition (Microglial cells; dose 25 μM): 22.63% and 10.00% and 11.58%
- OD values (printed under head μM NO release) (Microglial cells; dose 25 μM): 0.164 and 0.15 and 0.166
- μM NO release (Microglial cells; dose 25 μM): 17.500 µM and 15.313 µM and 17.813 µM
- Avg % Inhibition (Microglial cells; dose 50 μM): 47.368%
- μM NO release Avg (Microglial cells; dose 50 μM): 10.417 µM
- % inhibition (Microglial cells; dose 50 μM): 48.68% and 46.32% and 47.11%
- OD values (printed under head μM NO release) (Microglial cells; dose 50 μM): 0.119 and 0.117 and 0.12
- μM NO release (Microglial cells; dose 50 μM): 10.469 µM and 10.156 µM and 10.625 µM
- Avg % Inhibition (Microglial cells; dose 100 μM): 62.368%
- μM NO release Avg (Microglial cells; dose 100 μM): 7.448 µM
- % inhibition (Microglial cells; dose 100 μM): 64.47% and 60.53% and 62.11%
- OD values (printed under head μM NO release) (Microglial cells; dose 100 μM): 0.1 and 0.097 and 0.102
- μM NO release (Microglial cells; dose 100 μM): 7.500 µM and 7.031 µM and 7.813 µM
- Avg % Inhibition (Microglial cells; dose 200 μM): 67% and 67.105%
- μM NO release Avg (Microglial cells; dose 200 μM): 6.510 µM
- % inhibition (Microglial cells; dose 200 μM): 68.42% and 66.84% and 66.05%
- OD values (printed under head μM NO release) (Microglial cells; dose 200 μM): 0.095 and 0.092 and 0.094
- μM NO release (Microglial cells; dose 200 μM): 6.719 µM and 6.250 µM and 6.563 µM
- inhibition of NO release, in words (Microglial cells; dose response 0.75-200 μM): effective inhibitors of NO release
- Avg % Inhibition ([1]; 50 uM pretreatment 24 hours, then LPS/IFNγ 48 hours): 79.87%
- % inhibition [1, 5]: 86.74% and 69.63% and 83.24%
- OD values (printed under head μM NO release) [1, 5]: 0.206 and 0.163 and 0.153
- μM NO release [1, 5]: 6.000 µM and 3.313 µM and 2.621 µM
- Avg. % Inhibition [2, 6]: 96.40%
- μM NO release Avg [2, 6]: 1.000 µM
- OD values (printed under head μM NO release) [2, 7]: 0.064 and 0.055 and 0.062
- μM NO release [2, 7]: 1.393 µM and 0.429 µM and 1.179 µM
- % inhibition ([2]; 50 uM + 10 μg/ml LPS/10 ng/ml IFNγ, 48 hours, single replicates, 50 µM): 98.46% and 95.75% and 94.98%
- inhibition of NO release, in words ([2]; 50 uM, LPS/IFNγ stimulated microglia): effective inhibitors of NO release
- % Inhibition at 50 μM (NO release) (microglia): 30%
- inhibition of NO release, in words ([3]; 50 μM, LPS/IFNγ stimulated microglial cells): very effective inhibitors of NO release
- % inhibition of NO release [3, 8]: 48.8%
- NO release, Avg [3, 8]: 9.5299 µM
- OD Values [3, 8]: 0.094 and 0.137 and 0.145
- NO release [3, 8]: 6.0450 µM and 10.8259 µM and 11.7188 µM
- NO release, Avg [3, 9]: 1.0417 µM
- OD Values [3, 9]: 0.053 (2×) and 0.054
- NO release [3, 9]: 1.0000 uM (2×) and 1.1250 uM
- % Inhibition (summary of inhibition of NO release) ([3]; Table 2 summary, 50 μM, LPS/IFNγ, 24 hours): 48.8%

SMILES: O=C(NCc1ccc(O)c(O)c1)c1ccc(O)c(O)c1 [Compound 52, 3,4-dihydroxybenzoic acid 3,4-dihydroxybenzylamide]
- % inhibition [1, 5]: 80.39% and 81.34%
- inhibition at 50 µM ([1]; 50 uM pretreatment 24 hours, then LPS/IFNγ 48 hours, read-out: Avg % Inhibition): 80%
- inhibition at 50 µM ([1]; 50 uM pretreatment 24 hours, then LPS/IFNγ 48 hours, single replicates, read-out: % inhibition): 78.2%
- inhibition at 50 µM ([1]; 50 μM pretreatment, read-out: inhibition of NO release following pretreatment): > 75%
- inhibition at 50 µM (microglia; Microglia): 13%
- NO release, Avg [3, 8]: 16.2840 µM
- NO release, Avg [3, 9]: -0.0417 µM
- inhibition at 50 µM ([3]; Compound + LPS/IFNγ, 24 hours, read-out: % inhibition of NO release): 12.6%
- inhibition at 50 µM ([3]; Table 2 summary, LPS/IFNγ, 24 hours, read-out: % Inhibition (summary of inhibition of NO release)): 12.6%
- % inhibition ([4]; individual replicates, 50 µM): −12.27% and −26.58% and −30.69%
- inhibition at 50 µM ([4]; Microglia, 24 h, read-out: Avg % Inhibition): -23.2%
